Source: patent US12370192B2, “Azole-fused pyridazin-3(2H)-one derivatives” (TAKEDA PHARMACEUTICAL COMPANY LIMITED, priority 2019, dated 2025)

How the values were obtained:
human GPR139 receptor [1] = target: T1, human GPR139 receptor (Homo sapiens, UniProt Q6DWJ6); test: GPR139 Competition Binding (membrane-based, tritium-labeled ligand); details: T-REx-CHO membranes with human GPR139; 6.5 nM tritium-labeled ligand; 11-point curve, 30 μM maximum concentration; read-out: GPR139 Binding Affinity (pKi) (converted)
T1 construct: expressed in transfected cells; host or cells: T-REx-CHO (Thermo Fisher Scientific), doxycycline-induced
T1 sequence (Q6DWJ6 1-353): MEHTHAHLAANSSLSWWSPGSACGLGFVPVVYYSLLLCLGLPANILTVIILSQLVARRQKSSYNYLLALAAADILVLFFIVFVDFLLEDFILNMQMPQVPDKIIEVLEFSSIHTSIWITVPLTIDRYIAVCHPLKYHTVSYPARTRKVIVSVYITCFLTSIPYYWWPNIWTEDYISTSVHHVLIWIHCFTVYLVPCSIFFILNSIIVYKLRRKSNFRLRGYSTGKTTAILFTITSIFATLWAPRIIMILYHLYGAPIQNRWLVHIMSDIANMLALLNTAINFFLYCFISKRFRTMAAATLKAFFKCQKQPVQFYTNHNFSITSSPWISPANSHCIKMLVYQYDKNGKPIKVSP
Description: OPR139 Competition Binding
This membrane-based assay measures the ability of compounds to competitively bind GPR139 in stably transfected TREx™-CHO membranes. To prepare the membranes, T-REx™-CHO (Thermo Fisher Scientific®) cells are stably expressed with human GPR139 receptor, whose expression is controlled by a tetracycline-inducible element. The cells are cultured in medium containing F-12K nutrient mixture-Kaighn's modification, 10% tetracycline-free FBS, Blasticidin S HCl (10 μg/mL) and Hygromycin B (200 μg/mL). GPR139 receptor expression is induced for 18 hours with 2 μg/mL doxycycline (Sigma D9891) in growth media. After addition of doxycycline, cells are harvested in PBS and pelleted by centrifugation for 5 minutes at 200×G. Liquid is aspirated off and cells are resuspended in ice cold lysis buffer (20 mM HEPES/5 mM EDTA pH 7.4/1× Roche® protease inhibitor). Samples are vortexed until homogenous and then placed on ice and homogenized using a Dounce homogenizer at 50% power (3 cycles, 10 strokes per cycle). Lysate is centrifuged at 4° C. for 10 minutes in a tabletop Sorvall® centrifuge at 2000×G. The supernatant is recovered and centrifuged in a Sorvall® ultracentrifuge at 35,000 rpm for 30 minutes at 4° C. The supernatant is discarded, and the remaining pellet resuspended in lysis buffer (20 mM HEPES/0.1 mM EGTA/Roche® protease inhibitor). Membrane protein concentration is determined using Thermo Fisher® BCA quantification kit and is aliquoted into microtubes. Tubes are snap frozen in liquid nitrogen and stored at −80° C. Prior to use, the membranes are removed from cold storage, thawed to room temperature, vortexed until homogenous and diluted in assay buffer (20 mM HEPES pH 7.3, 5 mM MgCl2, 1 mM CaCl2), 1× Thermo Scientific® Halt™ protease inhibitor (78429)).
The assay is run in 96-well, polypropylene, v-bottom plates (Greiner Bio-One® 651201). Test compound in DMSO is added to the wells of each plate (11-point dose response curve, 30 μM maximum concentration, 3-fold serial dilution). A fixed amount of tritium-labeled ligand, (S)-2-(2,3-dimethyl-7-oxothieno[2,3-d]pyridazin-6(7H)-yl)-N-(1-(4-methoxyphenyl-2-t)propan-2-yl)acetamide (Quotient Bioresearch) in assay buffer (6.5 nM assay concentration) is added to each well of the assay plate, which is then agitated on a plate shaker for 30 seconds. Next, a fixed amount of membranes in assay buffer (2 μg membranes) is added to each well of the assay plate, which is then spun for 30 seconds at 300 rpm in a tabletop Eppendorf centrifuge, and then incubated at room temperature for 20 minutes. Using a Tomtec harvester, the contents of the assay plate are transferred to Filtermat A (PerkinElmer® No. 1450-421) which prior to use is pre-soaked in 0.5% PEI (Sigma P3143) for 3 hours and dried at room temperature overnight. Following transfer, the Filtermat is washed 5 times with cold wash buffer (20 mM HEPES pH 7.3, 100 mM NaCl). The Filtermat is dried using a microwave oven and placed in a sample bag (PerkinElmer® No. 1450-432) with a scintillator sheet (PerkinElmer® No. 1450-411). The scintillator sheet is melted to the Filtermat using a heat block set to 65° C., placed in a MicroBeta® cartridge and read using a MicroBeta® scintillation counter. Binding curves are generated with a four-parameter logistic equation using GraphPad Prism® 6 and the inhibition constant Ki is reported as pKi.

human GPR139 receptor [2] = target: T1, human GPR139 receptor; test: Measurement of GPR139 Activation Via Calcium Signaling (FLIPR, T-REx-CHO cells); assay type: cell-based; details: T-REx-CHO cells stably expressing human GPR139, 11-point dose response, 10 μM maximum concentration, read-out: GPR139 Potency (pEC50) (converted)
Description: Measurement of GPR139 Activation Via Calcium Signaling
This cell-based assay measures the ability of compounds to activate GPR139 in stably transfected T-REx™-CHO cells. T-REx™-CHO cells (Thermo Fisher Scientific®) are stably expressed with human GPR139 receptor, whose expression is controlled by a tetracycline-inducible element. The cells are cultured in medium containing F-12K nutrient mixture-Kaighn's modification, TripleLE™ Express (1×)-phenol red, Dulbecco's phosphate-buffered saline (1×), 10% tetracycline-free FBS, Blasticidin S HCl (10 μg/mL) and Hygromycin B (200 μg/mL). The cells are introduced into the wells of a 384-well black clear bottom plate (Costar®) at 10,000 cells/well. GPR139 receptor expression is induced with 2 μg/mL doxycycline (Sigma D9891). The plate is allowed to stand at room temperature for 10-30 minutes and then incubated at 37° C. and 5% CO2 for 17 hours prior to assay.
Culture media is removed from cells and 45 μL of 1× calcium dye (2.5 mM) is added to each well and incubated at 37° C. and 5% CO2 for 40 minutes. The plate is removed from the incubator and allowed to stand at RT for 20 minutes without a plate cover prior to measurement of calcium signaling. The calcium dye is prepared by adding 10 mL of assay buffer (Hank's Balanced Salt Solution (1×), 1 mM HEPES at pH 7.4) to one vial of calcium dye (FLIPR® Calcium 5 Assay Kit; Molecular Devices) at room temperature, vortexing the mixture until homogenous, and transferring the dye to a 250 mL flask using 10 mL of assay, buffer to rinse the vial. The dye is subsequently transferred to a conical flask, which is filled to the 200 mL mark with assay buffer, and 1 mL of […] probenecid solution (142.68 mg/mL in 1M NaOH aq) is added.
Example compounds suspended in DMSO are received from compound management in microtiter plates (0.25 μL/well) and are diluted in assay buffer (25 μL). Following incubation of the cell plate, the Example compounds are added to the cells (11-point dose response, 10 μM maximum concentration) using a FLIPR® Tetra system (Molecular Devices) and fluorescence is measured continuously for 1 minute. EC50 curves are generated with a four-parameter logistic equation using GraphPad Prism® 6, and activation of GPR139 for each example compound is reported as pEC50.

Row | Structure (SMILES) | Ki (human GPR139 receptor [1]) | EC50 (human GPR139 receptor [2])
1 | Cc1ccc([C@H](C)NC(=O)Cn2nc(C)c3cnn(C(C)(C)C)c3c2=O)c(F)c1 [Example 16, (S)-2-(1-(tert-butyl)-4-methyl-7-oxo-1,7-dihydro-6H-pyrazolo[3,4-d]pyridazin-6-yl)-N-(1-(2-fluoro-4-methylphenyl)ethyl)acetamide] | 11 nM | 200 nM
2 | COc1ccc([C@H](C)NC(=O)Cn2ncc3c(c(C)nn3C(C)C)c2=O)cc1 [Example 17, (S)-2-(1-isopropyl-3-methyl-4-oxo-1,4-dihydro-5H-pyrazolo[3,4-d]pyridazin-5-yl)-N-(1-(4-methoxyphenyl)ethyl)acetamide] | 2950 nM | 57.5 nM
3 | COc1ccc([C@H](C)NC(=O)Cn2ncc3c(c(C4CC4)nn3C(C)C)c2=O)cc1 [Example 18, (S)-2-(3-cyclopropyl-1-isopropyl-4-oxo-1,4-dihydro-5H-pyrazolo[3,4-d]pyridazin-5-yl)-N-(1-(4-methoxyphenyl)ethyl)acetamide] | 355 nM | 170 nM
4 | COc1ccc([C@H](C)NC(=O)Cn2ncc3c(c(C)nn3C)c2=O)c(F)c1 [Example 19, (S)-2-(1,3-dimethyl-4-oxo-1,4-dihydro-5H-pyrazolo[3,4-d]pyridazin-5-yl)-N-(1-(2-fluoro-4-methoxyphenyl)ethyl)acetamide] | 1070 nM | 67.6 nM
5 | Cc1ccc([C@H](C)NC(=O)Cn2nc(C)c3c(C)nn(C)c3c2=O)cc1 [Example 20, (S)—N-(1-(p-tolyl)ethyl)-2-(1,3,4-trimethyl-7-oxo-1,7-dihydro-6H-pyrazolo[3,4-d]pyridazin-6-yl)acetamide] | 178 nM | 41.7 nM
6 | Cc1ccc([C@H](C)NC(=O)Cn2nc(C)c3c(C)nn(C(C)C)c3c2=O)cc1 [Example 21, (S)-2-(1-isopropyl-3,4-dimethyl-7-oxo-1,7-dihydro-6H-pyrazolo[3,4-d]pyridazin-6-yl)-N-(1-(p-tolyl)ethyl)acetamide] | 28.2 nM | 115 nM
7 | Cc1ccc([C@H](C)NC(=O)Cn2nc(C)c3c(C)nn(C4CC4)c3c2=O)cc1 [Example 22, (S)-2-(1-cyclopropyl-3,4-dimethyl-7-oxo-1,7-dihydro-6H-pyrazolo[3,4-d]pyridazin-6-yl)-N-(1-(p-tolyl)ethyl)acetamide] | 9.12 nM | 105 nM
8 | Cc1ccc([C@H](C)NC(=O)Cn2ncc3c(C)nn(C(C)C)c3c2=O)cc1 [Example 23] | 102 nM | 166 nM

Further lines, results first:

Row | Ki (human GPR139 receptor [1]) | EC50 (human GPR139 receptor [2]) | Structure (SMILES)
9 | 97.7 nM | 46.8 nM | Cc1nn(C2CC2)c2cnn(CC(=O)N[C@@H](C)c3ccc(Cl)cc3F)c(=O)c12 [Example 24, (S)—N-(1-(4-chloro-2-fluorophenyl)ethyl)-2-(1-cyclopropyl-3-methyl-4-oxo-1,4-dihydro-5H-pyrazolo[3,4-d]pyridazin-5-yl)acetamide]
10 | 617 nM | 23.4 nM | Cc1nn(C2CC2)c2cnn(CC(=O)N[C@@H](C)c3cccc(F)c3)c(=O)c12 [Example 25, (S)-2-(1-cyclopropyl-3-methyl-4-oxo-1,4-dihydro-5H-pyrazolo[3,4-d]pyridazin-5-yl)-N-(1-(3-fluorophenyl)ethyl)acetamide]
11 | 38900 nM | 933 nM | Cc1ccc(C)c([C@H](C)NC(=O)Cn2ncc3c(c(C)nn3C3CC3)c2=O)c1 [Example 26, (S)-2-(1-cyclopropyl-3-methyl-4-oxo-1,4-dihydro-5H-pyrazolo[3,4-d]pyridazin-5-yl)-N-(1-(2,5-dimethylphenyl)ethyl)acetamide]
12 | 219 nM | 240 nM | Cc1ccc([C@H](C)NC(=O)Cn2ncc3c(C)nn(C)c3c2=O)cc1 [Example 27, (S)-2-(1,3-dimethyl-7-oxo-1,7-dihydro-6H-pyrazolo[3,4-d]pyridazin-6-yl)-N-(1-(p-tolyl)ethyl)acetamide]
13 | 32.4 nM | 52.5 nM | Cc1ccc([C@H](C)NC(=O)Cn2ncc3c(C)nn(C4CC4)c3c2=O)cc1 [Example 28, (S)-2-(1-cyclopropyl-3-methyl-7-oxo-1,7-dihydro-6H-pyrazolo[3,4-d]pyridazin-6-yl)-N-(1-(p-tolyl)ethyl)acetamide]
14 | 30200 nM | 513 nM | Cc1ccc([C@H](C)NC(=O)Cn2nc(C)c3c(ncn3C)c2=O)cc1 [Example 29, (S)-2-(1,7-dimethyl-4-oxo-1,4-dihydro-5H-imidazo[4,5-d]pyridazin-5-yl)-N-(1-(p-tolyl)ethyl)acetamide]
15 | 257 nM | 72.4 nM | Cc1nn(C2CC2)c2cnn(CC(=O)N[C@@H](C)c3cccc(F)c3F)c(=O)c12 [Example 30, (S)-2-(1-cyclopropyl-3-methyl-4-oxo-1,4-dihydro-5H-pyrazolo[3,4-d]pyridazin-5-yl)-N-(1-(2,3-difluorophenyl)ethyl)acetamide]
16 | 11700 nM | 57.5 nM | COc1ccc([C@H](C)NC(=O)Cn2ncc3c(c(C)nn3C3CC3)c2=O)cc1C [Example 31, (S)-2-(1-cyclopropyl-3-methyl-4-oxo-1,4-dihydro-5H-pyrazolo[3,4-d]pyridazin-5-yl)-N-(1-(4-methoxy-3-methylphenyl)ethyl)acetamide]
17 | 30200 nM | 617 nM | Cc1nn(C2CC2)c2cnn(CC(=O)N[C@@H](C)c3ccc(C(F)(F)F)cn3)c(=O)c12 [Example 32]
